{"source": "patent EP2167084B1", "about": "“AN ALLERGEN DOSAGE FORM COMPRISING AN ANTIHISTAMINE” (ALK-Abelló A/S, priority 2007, dated 2008)", "assay": "Cross-over, single-centre investigation of the effect of desloratidine on local adverse effects caused by Phleum pratense pollen extract (Grazax)", "assay_type": "in vivo, patients", "settings": "2.5 mg, half the daily dose for a person above 12 years of age, given with Grazax", "excerpt": "Investigation of the effect of desloratidine on adverse effects such itching in or around the mouth and the lips, ithching throat, itching in the ears and eyes caused by Phleum pratense pollen extract\nThe study was is was a cross-over, single-centre investigation.\nThe patients participated on two single days (visit 1 and visit 2) separated by approximately two weeks to avoid development of tolerance due to Grazax treatment. The subjects received one Grazax 75,000 SQ-T on Visit 1 and if they reported treatment related local adverse events in the mouth and/or throat after intake they were eligible for Visit 2. If no treatment related adverse events were reported after Grazax intake on Visit 1 the subjects were excluded from the study. On visit 2, the subjects received 1 antihistamine (Aerius (Desloratadine) melting tablet 2.5 mg, i.e. orally-disintegrating tablet). Grazax was administered immediately after intake of antihistamine.\nAEs were reported on AE pages. AEs were rated mild, moderate or severe. Furthermore, the subjects rated the AE severity on a Visual Analogue Scale (VAS). The AEs of interest were itching mouth, itching throat or other local reactions.\nA total of 15 subjects attended visit 1. […] These were therefore eligible for visit 2. Key selection criteria were: • 1. […]"}
{"smiles": "Clc1ccc2c(c1)CCc1cccnc1C2=C1CCNCC1", "note": "[desloratidine]", "values": [{"measurement": "relief from the itching of the mouth and pharynx", "value": "sufficient to relieve most patients"}]}
